Key:
Type in all cases: functional
SF-539 [1] = assay: Growth inhibition of human SF539 cells assessed as cell growth at 3X10'-5 M after 48 hrs by sulforhodamine B assay; conditions: SF-539, 48 h, read-out: Activity
SF-539 [2] = assay: Growth inhibition of human SF539 cells assessed as cell growth at 3X10'-9 M after 48 hrs by sulforhodamine B assay; conditions: SF-539, 48 h, read-out: Activity
[3] = Growth inhibition of human Hs 578T cells assessed as cell growth at 3X10'-6 M after 48 hrs by sulforhodamine B assay; conditions: read-out: Activity
Malme-3M = assay: Growth inhibition of human MALME-3M cells assessed as cell growth at 3X10'-5 M after 48 hrs by sulforhodamine B assay; conditions: read-out: Activity
HOP-62 [4] = assay: Growth inhibition of human HOP62 cells assessed as cell growth at 3X10'-7 M after 48 hrs by sulforhodamine B assay; conditions: HOP-62, 48 h, read-out: Activity
A549 [5] = assay: Growth inhibition of human A549/ATCC cells assessed as cell growth at 3X10'-7 M after 48 hrs by sulforhodamine B assay; conditions: A549, 48 h, read-out: Activity
HT-29 = assay: Growth inhibition of human HT-29 cells assessed as cell growth at 3X10'-8 M after 48 hrs by sulforhodamine B assay; conditions: HT-29, 48 h, read-out: Activity
A498 [6] = assay: Growth inhibition of human A498 cells assessed as cell growth at 3X10'-8 M after 48 hrs by sulforhodamine B assay; conditions: A498, 48 h, read-out: Activity
MDA-MB-231 = assay: Growth inhibition of human MDA-MB-231 cells assessed as cell growth at 3X10'-7 M after 48 hrs by sulforhodamine B assay; conditions: MDA-MB-231, 48 h, read-out: Activity
CCRF-CEM = assay: Growth inhibition of human CCRF-CEM cells assessed as cell growth at 3X10'-6 M after 48 hrs by sulforhodamine B assay; conditions: read-out: Activity
UACC-257 = assay: Growth inhibition of human UACC257 cells assessed as cell growth at 3X10'-9 M after 48 hrs by sulforhodamine B assay; conditions: UACC-257, 48 h, read-out: Activity
M14 = assay: Growth inhibition of human M14 cells assessed as cell growth at 3X10'-9 M after 48 hrs by sulforhodamine B assay; conditions: M14, 48 h, read-out: Activity
SK-MEL-2 = assay: Growth inhibition of human SK-MEL-2 cells assessed as cell growth at 3X10'-7 M after 48 hrs by sulforhodamine B assay; conditions: SK-MEL-2, 48 h, read-out: Activity
MCF7 = assay: Growth inhibition of human MCF7 cells assessed as cell growth at 3X10'-8 M after 48 hrs by sulforhodamine B assay; conditions: MCF7, 48 h, read-out: Activity
UACC-62 = assay: Growth inhibition of human UACC62 cells assessed as cell growth at 3X10'-6 M after 48 hrs by sulforhodamine B assay; conditions: UACC-62, 48 h, read-out: Activity
HOP-62 [7] = assay: Growth inhibition of human HOP62 cells assessed as cell growth at 3X10'-8 M after 48 hrs by sulforhodamine B assay; conditions: HOP-62, 48 h, read-out: Activity
A498 [8] = assay: Growth inhibition of human A498 cells assessed as cell growth at 3X10'-6 M after 48 hrs by sulforhodamine B assay; conditions: A498, 48 h, read-out: Activity
NCI-H522 = assay: Growth inhibition of human NCI-H522 cells assessed as cell growth at 3X10'-7 M after 48 hrs by sulforhodamine B assay; conditions: NCI-H522, 48 h, read-out: Activity
OVCAR-8 = assay: Growth inhibition of human OVCAR8 cells assessed as cell growth at 3X10'-6 M after 48 hrs by sulforhodamine B assay; conditions: OVCAR-8, 48 h, read-out: Activity
HOP-62 [9] = assay: Growth inhibition of human HOP62 cells assessed as cell growth at 3X10'-5 M after 48 hrs by sulforhodamine B assay; conditions: HOP-62, 48 h, read-out: Activity
SNB-75 [10] = assay: Growth inhibition of human SNB75 cells assessed as cell growth at 3X10'-8 M after 48 hrs by sulforhodamine B assay; conditions: SNB-75, 48 h, read-out: Activity
NCI-H226 = assay: Growth inhibition of human NCI-H226 cells assessed as cell growth at 3X10'-7 M after 48 hrs by sulforhodamine B assay; conditions: NCI-H226, 48 h, read-out: Activity
RXF 393 = assay: Growth inhibition of human RXF393 cells assessed as cell growth at 3X10'-6 M after 48 hrs by sulforhodamine B assay; conditions: RXF 393, 48 h, read-out: Activity
SNB-75 [11] = assay: Growth inhibition of human SNB75 cells assessed as cell growth at 3X10'-7 M after 48 hrs by sulforhodamine B assay; conditions: SNB-75, 48 h, read-out: Activity
SR = assay: Growth inhibition of human SR cells assessed as cell growth at 3X10'-7 M after 48 hrs by sulforhodamine B assay; conditions: read-out: Activity
A549 [12] = assay: Growth inhibition of human A549/ATCC cells assessed as cell growth at 3X10'-5 M after 48 hrs by sulforhodamine B assay; conditions: A549, 48 h, read-out: Activity
IGROV-1 = assay: Growth inhibition of human IGROV1 cells assessed as cell growth at 3X10'-6 M after 48 hrs by sulforhodamine B assay; conditions: IGROV-1, 48 h, read-out: Activity
NCI-H322M = assay: Growth inhibition of human NCI-H322M cells assessed as cell growth at 3X10'-7 M after 48 hrs by sulforhodamine B assay; conditions: read-out: Activity
SNB-75 [13] = assay: Growth inhibition of human SNB75 cells assessed as cell growth at 3X10'-6 M after 48 hrs by sulforhodamine B assay; conditions: SNB-75, 48 h, read-out: Activity
[14] = Growth inhibition of human NCI-ADR-RES cells assessed as cell growth at 3X10'-9 M after 48 hrs by sulforhodamine B assay; conditions: read-out: Activity
SK-MEL-28 = assay: Growth inhibition of human SK-MEL-28 cells assessed as cell growth at 3X10'-5 M after 48 hrs by sulforhodamine B assay; conditions: SK-MEL-28, 48 h, read-out: Activity
RPMI-8226 = assay: Growth inhibition of human RPMI8226 cells assessed as cell growth at 3X10'-7 M after 48 hrs by sulforhodamine B assay; conditions: RPMI-8226, 48 h, read-out: Activity
MDA-MB-468 = assay: Growth inhibition of human MDA-MB-468 cells assessed as cell growth at 3X10'-5 M after 48 hrs by sulforhodamine B assay; conditions: MDA-MB-468, 48 h, read-out: Activity
OVCAR-4 = assay: Growth inhibition of human OVCAR4 cells assessed as cell growth at 3X10'-8 M after 48 hrs by sulforhodamine B assay; conditions: OVCAR-4, 48 h, read-out: Activity
SF-268 = assay: Growth inhibition of human SF268 cells assessed as cell growth at 3X10'-7 M after 48 hrs by sulforhodamine B assay; conditions: SF-268, 48 h, read-out: Activity
SNB-19 = assay: Growth inhibition of human SNB19 cells assessed as cell growth at 3X10'-6 M after 48 hrs by sulforhodamine B assay; conditions: SNB-19, 48 h, read-out: Activity
786-0 = assay: Growth inhibition of human 786-0 cells assessed as cell growth at 3X10'-5 M after 48 hrs by sulforhodamine B assay; conditions: 786-0, 48 h, read-out: Activity

## O=C(Nc1cccc(-n2cc(-c3ccncc3)c(-c3ccc(Cl)c(O)c3)n2)c1)Nc1cccc(C(F)(F)F)c1
SF-539 [1]
  growth at 30 µM: -43%
SF-539 [2]
  growth at 0.003 µM: 100%
[3]
  growth at 3 µM: 50%
Malme-3M
  growth at 30 µM: -10%
HOP-62 [4]
  growth at 0.3 µM: 105%
A549 [5]
  growth at 0.3 µM: 93%
HT-29
  growth at 0.03 µM: 99%
A498 [6]
  growth at 0.03 µM: 83%
MDA-MB-231
  growth at 0.3 µM: 95%
CCRF-CEM
  growth at 3 µM: 25%
UACC-257
  growth at 0.003 µM: 96%
M14
  growth at 0.003 µM: 97%
SK-MEL-2
  growth at 0.3 µM: 107%
MCF7
  growth at 0.03 µM: 96%
UACC-62
  growth at 3 µM: 33%
HOP-62 [7]
  growth at 0.03 µM: 98%
A498 [8]
  growth at 3 µM: 44%
NCI-H522
  growth at 0.3 µM: 98%
OVCAR-8
  growth at 3 µM: 31%
HOP-62 [9]
  growth at 30 µM: 9%
SNB-75 [10]
  growth at 0.03 µM: 94%
NCI-H226
  growth at 0.3 µM: 98%
RXF 393
  growth at 3 µM: 49%
SNB-75 [11]
  growth at 0.3 µM: 85%
SR
  growth at 0.3 µM: 100%
A549 [12]
  growth at 30 µM: 11%
IGROV-1
  growth at 3 µM: 29%
NCI-H322M
  growth at 0.3 µM: 98%
SNB-75 [13]
  growth at 3 µM: 53%
[14]
  growth at 0.003 µM: 99%
SK-MEL-28
  growth at 30 µM: 3%
RPMI-8226
  growth at 0.3 µM: 90%
MDA-MB-468
  growth at 30 µM: -27%
OVCAR-4
  growth at 0.03 µM: 107%
SF-268
  growth at 0.3 µM: 96%
SNB-19
  growth at 3 µM: 36%
786-0
  growth at 30 µM: 7%

## COc1cc(-c2nn(-c3cccc(NC(=O)Nc4ccc(Cl)c(C(F)(F)F)c4)c3)cc2-c2ccncc2)ccc1Cl
SF-539 [1]
  growth at 30 µM: -80%
SF-539 [2]
  growth at 0.003 µM: 97%
[3]
  growth at 3 µM: 25%
Malme-3M
  growth at 30 µM: -47%
HOP-62 [4]
  growth at 0.3 µM: 93%
A549 [5]
  growth at 0.3 µM: 89%
HT-29
  growth at 0.03 µM: 106%
A498 [6]
  growth at 0.03 µM: 93%
MDA-MB-231
  growth at 0.3 µM: 85%
CCRF-CEM
  growth at 3 µM: 3%
UACC-257
  growth at 0.003 µM: 94%
M14
  growth at 0.003 µM: 106%
SK-MEL-2
  growth at 0.3 µM: 111%
MCF7
  growth at 0.03 µM: 92%
UACC-62
  growth at 3 µM: -21%
HOP-62 [7]
  growth at 0.03 µM: 95%
A498 [8]
  growth at 3 µM: 12%
NCI-H522
  growth at 0.3 µM: 100%
OVCAR-8
  growth at 3 µM: 5%
HOP-62 [9]
  growth at 30 µM: -51%
SNB-75 [10]
  growth at 0.03 µM: 93%
NCI-H226
  growth at 0.3 µM: 85%
RXF 393
  growth at 3 µM: 20%
SNB-75 [11]
  growth at 0.3 µM: 88%
SR
  growth at 0.3 µM: 98%
A549 [12]
  growth at 30 µM: -5%
IGROV-1
  growth at 3 µM: 5%
NCI-H322M
  growth at 0.3 µM: 91%
SNB-75 [13]
  growth at 3 µM: 24%
[14]
  growth at 0.003 µM: 104%
SK-MEL-28
  growth at 30 µM: -70%
RPMI-8226
  growth at 0.3 µM: 87%
MDA-MB-468
  growth at 30 µM: -38%
OVCAR-4
  growth at 0.03 µM: 96%
SF-268
  growth at 0.3 µM: 97%
SNB-19
  growth at 3 µM: 19%
786-0
  growth at 30 µM: -43%

## O=C(Nc1cccc(-n2cc(-c3ccncc3)c(-c3ccc(Cl)c(O)c3)n2)c1)Nc1ccc(Cl)c(C(F)(F)F)c1
SF-539 [1]
  growth at 30 µM: -37%
SF-539 [2]
  growth at 0.003 µM: 99%
[3]
  growth at 3 µM: 9%
Malme-3M
  growth at 30 µM: -70%
HOP-62 [4]
  growth at 0.3 µM: 104%
A549 [5]
  growth at 0.3 µM: 86%
HT-29
  growth at 0.03 µM: 107%
A498 [6]
  growth at 0.03 µM: 91%
MDA-MB-231
  growth at 0.3 µM: 69%
CCRF-CEM
  growth at 3 µM: -7%
UACC-257
  growth at 0.003 µM: 97%
M14
  growth at 0.003 µM: 100%
SK-MEL-2
  growth at 0.3 µM: 108%
MCF7
  growth at 0.03 µM: 90%
UACC-62
  growth at 3 µM: -48%
HOP-62 [7]
  growth at 0.03 µM: 100%
A498 [8]
  growth at 3 µM: 24%
NCI-H522
  growth at 0.3 µM: 82%
OVCAR-8
  growth at 3 µM: -16%
HOP-62 [9]
  growth at 30 µM: -17%
SNB-75 [10]
  growth at 0.03 µM: 92%
NCI-H226
  growth at 0.3 µM: 82%
RXF 393
  growth at 3 µM: -28%
SNB-75 [11]
  growth at 0.3 µM: 74%
SR
  growth at 0.3 µM: 81%
A549 [12]
  growth at 30 µM: -29%
IGROV-1
  growth at 3 µM: -17%
NCI-H322M
  growth at 0.3 µM: 95%
[14]
  growth at 0.003 µM: 102%
SK-MEL-28
  growth at 30 µM: -87%
RPMI-8226
  growth at 0.3 µM: 73%
MDA-MB-468
  growth at 30 µM: -43%
OVCAR-4
  growth at 0.03 µM: 95%
SF-268
  growth at 0.3 µM: 93%
SNB-19
  growth at 3 µM: 9%
786-0
  growth at 30 µM: 1%
